Laboratory results: patent US8952024B2, “Herbicidal pyrimidone derivatives” (E I du Pont de Nemours and Company, priority 2009, dated 2015)

Legend:
Format in all cases: in vivo
[1] = system: naked crabgrass (Digitaria nuda); test: Test D pre-/postemergence plant response
Procedure, shortened: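 Scores (0 no effect, 100 complete control) reflect visual assessment against untreated plants after 14 to 21 days. Treatments were pre- and postemergence sprays in solvent with surfactant.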

[2] = system: water seeded rice seedlings (Oryza sativa cv. ‘Japonica—M202’); test: Test E flooded paddy rice and weeds; conditions: applied to paddy water, 21 days, scale 0 to 100
Source text: (§1) Three plastic pots (ca. 16-cm diameter) for each application were partially filled with sterilized Tama silt loam soil comprising a 35:50:15 ratio of sand, silt and clay and 2.6% organic matter. Separate plantings for each of the three pots were as follows. Seeds from the U.S. of ducksalad (Heteranthera limosa), sedge (smallflower umbrella sedge, Cyperus difformis), ricefield bulrush (Scirpus mucronatus) and redstem (purple redstem, Ammannia coccinea), were planted into one 16-cm pot for each rate. Seeds from the U.S. of flatsedge (rice flatsedge, Cyperus iria), sprangletop (bearded (i.e. Brdd.) sprangletop, Leptochloa fascicularis), one stand of 9 or 10 water seeded rice seedlings (Oryza sativa cv. ‘Japonica—M202’), and two stands of 3 or 4 transplanted rice seedlings (Oryza sativa cv. ‘Japonica—M202’) were planted into one 16-cm pot for each rate. Seeds from the U.S. of barnyardgrass (Echinochloa crus-galli), late watergrass (Echinochloa oryzicola), early watergrass (Echinochloa oryzoides) and junglerice (Echinochloa colona) were planted into one 16-cm pot for each rate. Plantings were sequential so that crop and weed species were at the 2.0 to 2.5-leaf stage at time of treatment.
(§2) Potted plants were grown in a greenhouse with day/night temperature settings of 30/27° C., and supplemental balanced lighting was provided to maintain a 16-hour photoperiod. Test pots were maintained in the greenhouse until test completion.
(§3) At time of treatment, test pots were flooded to 3 cm above the soil surface, treated by application of test compounds directly to the paddy water, and then maintained at that water depth for the duration of the test. Effects of treatments on rice and weeds were visually evaluated by comparison to untreated controls after 21 days. Plant response ratings, summarized in Table E, are based on a scale of 0 to 100 where 0 is no effect and 100 is complete control. A dash (-) response means no test result.

[3] = system: barnyardgrass (Echinochloa crus-galli); test: Test E flooded paddy rice and weeds; conditions: applied to paddy water, 21 days, scale 0 to 100
Source text: as §1, §2, §3

[4] = system: sedge (smallflower umbrella sedge, Cyperus difformis); test: Test E flooded paddy rice and weeds; conditions: applied to paddy water, 21 days, scale 0 to 100
Source text: as §1, §2, §3

[5] = system: ricefield bulrush (Scirpus mucronatus); test: Test E flooded paddy rice and weeds; conditions: applied to paddy water, 21 days, scale 0 to 100
Source text: as §1, §2, §3

[6] = system: flatsedge (rice flatsedge, Cyperus iria); test: Test E flooded paddy rice and weeds; conditions: applied to paddy water, 21 days, scale 0 to 100
Source text: as §1, §2, §3

[7] = system: transplanted rice seedlings (Oryza sativa cv. ‘Japonica—M202’); test: Test E flooded paddy rice and weeds; conditions: applied to paddy water, 21 days, scale 0 to 100
Source text: as §1, §2, §3

[8] = system: late watergrass (Echinochloa oryzicola); test: Test E flooded paddy rice and weeds; conditions: applied to paddy water, 21 days, scale 0 to 100
Source text: as §1, §2, §3

[9] = system: early watergrass (Echinochloa oryzoides); test: Test E flooded paddy rice and weeds; conditions: applied to paddy water, 21 days, scale 0 to 100
Source text: as §1, §2, §3

[10] = system: redstem (purple redstem, Ammannia coccinea); test: Test E flooded paddy rice and weeds; conditions: applied to paddy water, 21 days, scale 0 to 100
Source text: as §1, §2, §3

[11] = Postemergence, 31 g ai/ha, scale 0 to 100
[12] = Postemergence, 62 g ai/ha, scale 0 to 100 (0 no effect, 100 complete control)
[13] = Postemergence, 125 g ai/ha, scale 0 to 100 (0 no effect, 100 complete control)
[14] = Preemergence, 16 g ai/ha, scale 0 to 100, 0 no effect, 100 complete control
[15] = Preemergence, 31 g ai/ha, scale 0 to 100 (0 no effect, 100 complete control)
[16] = Preemergence, 62 g ai/ha, scale 0 to 100
[17] = Preemergence, 125 g ai/ha, scale 0 to 100

`COCCn1c(-c2ccccc2)ncc(C(=O)C2=C(O)CCCC2=O)c1=O` [Compound 85] was tested, and the “Plant response rating, Crabgrass, Naked” value [1, 11] was 50, the “Plant response rating, Crabgrass, Naked” value [1, 12] was 75 and the “Plant response rating, Crabgrass, Naked” value [1, 13] was 80. For the same compound, the “Plant response rating, Crabgrass, Naked” value [1, 14] was 0, the “Plant response rating, Crabgrass, Naked” value [1, 15] was 95 and the “Plant response rating, Crabgrass, Naked” value [1, 16] was 95. For the same compound, the “Plant response rating, Crabgrass, Naked” value [1, 17] was 98.

For `COc1ccc(-n2c(-c3ccccc3)ncc(C(=O)C3=C(O)CCCC3=O)c2=O)cc1OC` [Compound 218], the “Plant response rating, Rice, Water Seeded, Flood” value ([2]; 32 g ai/ha) was 15, the “Plant response rating, Rice, Water Seeded, Flood” value ([2]; 64 g ai/ha) was 0 and the “Plant response rating, Rice, Water Seeded, Flood” value ([2]; 125 g ai/ha) was 20. The “Plant response rating, Rice, Water Seeded, Flood” value ([2]; 250 g ai/ha) was 35, the “Plant response rating, Barnyardgrass, Flood” value ([3]; 32 g ai/ha) was 0 and the “Plant response rating, Barnyardgrass, Flood” value ([3]; 64 g ai/ha) was 0. The “Plant response rating, Barnyardgrass, Flood” value ([3]; 125 g ai/ha) was 30, the “Plant response rating, Barnyardgrass, Flood” value ([3]; 250 g ai/ha) was 95 and the “Plant response rating, Sedge, Umbrella, Flood” value (“Plant response rating, Sedge” for short) ([4]; 32 g ai/ha) was 85. For the same compound, the “Plant response rating, Sedge” value ([4]; 64 g ai/ha) was 95, the “Plant response rating, Sedge” value ([4]; 125 g ai/ha) was 100 and the “Plant response rating, Sedge” value ([4]; 250 g ai/ha) was 100. For the same compound, the “Plant response rating, Bulrush, Ricefield, Flood” value (“Plant response rating, Bulrush” for short) ([5]; 32 g ai/ha) was 80, the “Plant response rating, Bulrush” value ([5]; 64 g ai/ha) was 80 and the “Plant response rating, Bulrush” value ([5]; 125 g ai/ha) was 90. The “Plant response rating, Bulrush” value ([5]; 250 g ai/ha) was 100, the “Plant response rating, Flatsedge, Rice, Flood” value ([6]; 32 g ai/ha) was 75 and the “Plant response rating, Flatsedge, Rice, Flood” value ([6]; 64 g ai/ha) was 70. The “Plant response rating, Flatsedge, Rice, Flood” value ([6]; 125 g ai/ha) was 70, the “Plant response rating, Flatsedge, Rice, Flood” value ([6]; 250 g ai/ha) was 75 and the “Plant response rating, Rice, Transplanted, Flood” value ([7]; 32 g ai/ha) was 0. For the same compound, the “Plant response rating, Rice, Transplanted, Flood” value ([7]; 64 g ai/ha) was 0, the “Plant response rating, Rice, Transplanted, Flood” value ([7]; 125 g ai/ha) was 0 and the “Plant response rating, Rice, Transplanted, Flood” value ([7]; 250 g ai/ha) was 10. The “Plant response rating, Watergrass, Late, Flood” value ([8]; 32 g ai/ha) was 20, the “Plant response rating, Watergrass, Late, Flood” value ([8]; 64 g ai/ha) was 40 and the “Plant response rating, Watergrass, Late, Flood” value ([8]; 125 g ai/ha) was 40. The “Plant response rating, Watergrass, Late, Flood” value ([8]; 250 g ai/ha) was 70, the “Plant response rating, Watergrass, Early, Flood” value ([9]; 32 g ai/ha) was 0 and the “Plant response rating, Watergrass, Early, Flood” value ([9]; 64 g ai/ha) was 20. For the same compound, the “Plant response rating, Watergrass, Early, Flood” value ([9]; 125 g ai/ha) was 20, the “Plant response rating, Watergrass, Early, Flood” value ([9]; 250 g ai/ha) was 60 and the “Plant response rating, Redstem, Flood” value ([10]; 32 g ai/ha) was 65. The “Plant response rating, Redstem, Flood” value ([10]; 64 g ai/ha) was 65, the “Plant response rating, Redstem, Flood” value ([10]; 125 g ai/ha) was 75 and the “Plant response rating, Redstem, Flood” value ([10]; 250 g ai/ha) was 80.

In the case of `COCCn1c(-c2cccc(C)c2)ncc(C(=O)C2=C(O)C3CCC(C3)C2=O)c1=O` (stereo not drawn) [Compound 233], the “Plant response rating, Crabgrass, Naked” value [1, 11] is reported as 50, the “Plant response rating, Crabgrass, Naked” value [1, 12] is reported as 60 and the “Plant response rating, Crabgrass, Naked” value [1, 13] is reported as 70. The “Plant response rating, Crabgrass, Naked” value ([1]; Postemergence, 16 g ai/ha, scale 0 to 100) was 30, the “Plant response rating, Crabgrass, Naked” value [1, 14] was 0 and the “Plant response rating, Crabgrass, Naked” value [1, 15] was 0. For the same compound, the “Plant response rating, Crabgrass, Naked” value [1, 16] was 65 and the “Plant response rating, Crabgrass, Naked” value [1, 17] was 65.

For `COCCn1c(-c2cc(F)cc(F)c2)ncc(C(=O)C2=C(O)C3CCC(C3)C2=O)c1=O` (stereo not drawn) [Compound 243, 2-(3,5-difluorophenyl)-5-[(2-hydroxy-4-oxobicyclo[3.2.1]oct-2-en-3-yl)carbonyl]-3-(2-methoxyethyl)-4(3H)-pyrimidinone], the “Plant response rating, Crabgrass, Naked” value [1, 16] was 100, the “Plant response rating, Crabgrass, Naked” value [1, 17] was 100 and the “Plant response rating, Crabgrass, Naked” value ([1]; Preemergence, 250 g ai/ha, scale 0 to 100) was 100.
